From publication PMC7677311, “Disrupting Plasmodium UIS3–host LC3 interaction with a small molecule causes parasite elimination from host cells” (Communications Biology, 2020)

Biological target: T1, UIS3 (PfUIS3) (Plasmodium falciparum, UniProt Q8IEU1)
T1 construct: gene PF3D7_1302200; recombinant His-mycUIS3, His tag cleaved; with LC3
Assay: ITC, C4 ([…]) titrated into a saturated solution of UIS3 with LC3, one-site model
Format: binding

T1 sequence (Q8IEU1 entry or part of it): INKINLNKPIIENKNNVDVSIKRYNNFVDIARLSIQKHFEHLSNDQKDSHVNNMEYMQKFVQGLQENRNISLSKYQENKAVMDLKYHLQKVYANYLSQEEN

Question: `N#Cc1ccc(C(=O)N2CCN(Cc3ccc(-c4noc(-c5cccc(C(F)(F)F)c5)n4)cc3)CC2)cc1` [C4, 4-{[4-(4-{5-[3-(trifluoromethyl)phenyl]-1,2,4-oxadiazol-3-yl}benzyl)piperazino]carbonyl}benzonitrile] was tested. Which Kd did it give?
Answer: 241 nM
